Laboratory results as given in ChEMBL document CHEMBL1201862, “PubChem BioAssay data set” (2004).
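These data come from cells grown in 96-well plates and exposed to compound for 48 hours at five concentrations. GI50 marks 50% less growth.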 The source made the active and inactive calls. No stated cut-off is given here; in the data, active = GI50 up to about 1.1 µM and inactive = higher.

What was measured:
Assay in all cases: NCI-60 cell line screen, 48 h
[1] = tested on: HCT-116
[2] = tested on: TK-10
[3] = tested on: SK-MEL-2
[4] = tested on: OVCAR-5
[5] = tested on: SNB-75
[6] = tested on: SK-MEL-28
[7] = tested on: KM-20L2
[8] = tested on: UACC-62
[9] = tested on: NCI-H460
[10] = tested on: MOLT-4
[11] = tested on: SW-620
[12] = tested on: LOX IMVI
[13] = tested on: SK-MEL-5
[14] = tested on: HL-60
[15] = tested on: HT-29
[16] = tested on: A498
[17] = tested on: NCI-H23
[18] = tested on: CCRF-CEM

Row | SMILES | GI50 [1] | GI50 [2] | GI50 [3] | GI50 [4] | GI50 [5] | GI50 [6] | GI50 [7] | GI50 [8] | GI50 [9] | GI50 [10] | GI50 [11] | GI50 [12] | GI50 [13] | GI50 [14] | GI50 [15] | GI50 [16] | GI50 [17] | GI50 [18]
1 | CSC(C1c2ccccc2N(C)C2=NC(=O)N(C)C(=O)C21Cl)S(=O)(=O)c1ccc(C)cc1 (stereo unspecified) | 31.8 µM (inactive) | > 100 µM (inactive) | 33 µM (inactive) | > 100 µM (inactive) | 24 µM (inactive) | 25 µM (inactive) | > 100 µM (inactive) | 91.8 µM (inactive) | > 100 µM (inactive) | 17.5 µM (inactive) | 26.6 µM (inactive) | 45.8 µM (inactive) | 57.4 µM (inactive) | 14.2 µM (inactive) | 34.1 µM (inactive) | > 100 µM (inactive) | 27 µM (inactive) | 9.04 µM (inactive)
2 | C/C(CC(=O)CCCC(=O)Nc1ccc(Cl)cc1Cl)=N/NC(=O)CC#N | > 100 µM (inactive) | > 100 µM (inactive) | > 100 µM (inactive) | > 100 µM (inactive) | > 100 µM (inactive) | > 100 µM (inactive) | > 100 µM (inactive) | > 100 µM (inactive) | > 100 µM (inactive) | > 100 µM (inactive) | > 100 µM (inactive) | > 100 µM (inactive) | > 100 µM (inactive) | > 100 µM (inactive) | > 100 µM (inactive) | > 100 µM (inactive) | > 100 µM (inactive) | > 100 µM (inactive)
3 | O=C(O)c1ccc2c(c1)C(=O)N(c1ccc(S(=O)(=O)c3ccc(N4C(=O)c5ccc(C(=O)O)cc5C4=O)cc3)cc1)C2=O | > 100 µM (inactive) | > 100 µM (inactive) | > 100 µM (inactive) | > 100 µM (inactive) | > 100 µM (inactive) | > 100 µM (inactive) | > 100 µM (inactive) | > 100 µM (inactive) | > 100 µM (inactive) | > 100 µM (inactive) | > 100 µM (inactive) | > 100 µM (inactive) | > 100 µM (inactive) | > 100 µM (inactive) | > 100 µM (inactive) | > 100 µM (inactive) | > 100 µM (inactive) | > 100 µM (inactive)
4 | O=P1(c2ccccc2)CCCCC1 | > 100 µM (inactive) | > 100 µM (inactive) | > 100 µM (inactive) | > 100 µM (inactive) | > 100 µM (inactive) | > 100 µM (inactive) | > 100 µM (inactive) | > 100 µM (inactive) | > 100 µM (inactive) | > 100 µM (inactive) | > 10 µM (inactive) | > 100 µM (inactive) | > 100 µM (inactive) | > 100 µM (inactive) | > 100 µM (inactive) | > 100 µM (inactive) | > 100 µM (inactive) | > 100 µM (inactive)
5 | C(=C1\CCC/C(=C/c2ccccc2)C1=NNc1ccccc1)/c1ccccc1 | > 100 µM (inactive) | > 100 µM (inactive) | > 100 µM (inactive) | > 100 µM (inactive) | 87.3 µM (inactive) | > 100 µM (inactive) | > 100 µM (inactive) | > 100 µM (inactive) | > 100 µM (inactive) | > 100 µM (inactive) | > 100 µM (inactive) | > 100 µM (inactive) | > 100 µM (inactive) | > 100 µM (inactive) | > 100 µM (inactive) | > 100 µM (inactive) | > 100 µM (inactive) | > 100 µM (inactive)
6 | CCOC(=O)c1ccc(-n2c(SCC)nc3sc(C)c(C)c3c2=O)cc1 | > 100 µM (inactive) | > 100 µM (inactive) | > 100 µM (inactive) | > 100 µM (inactive) | 36.7 µM (inactive) | > 100 µM (inactive) | > 100 µM (inactive) | > 100 µM (inactive) | > 100 µM (inactive) | > 10 µM (inactive) | > 100 µM (inactive) | > 100 µM (inactive) | > 100 µM (inactive) | > 100 µM (inactive) | > 100 µM (inactive) | 25.2 µM (inactive) | > 100 µM (inactive) | > 100 µM (inactive)
7 | COc1cc(C2c3cc4c(cc3[C@@H](Nc3ccc(N(C)C)cc3)[C@H]3COC(=O)C23)OCO4)cc(OC)c1O (stereo partly specified) | 0.582 µM (active) | 2.64 µM (inactive) | 2.37 µM (inactive) | 0.818 µM (active) | 0.324 µM (active) | 3.79 µM (inactive) | 0.708 µM (active) | 0.232 µM (active) | 0.0214 µM (active) | 0.108 µM (active) | 0.807 µM (active) | 0.817 µM (active) | 0.873 µM (active) | 0.193 µM (active) | 1.13 µM (inactive) | 0.551 µM (active) | 0.189 µM (active) | 0.153 µM (active)
